The source made the active and inactive calls.
Key:
[1] = target: Heat shock protein HSP 90-alpha (Homo sapiens, UniProt P07900); format: functional, organism-based
cells [2] = format: functional, cell-based
[3] = target: T1, Trace amine-associated receptor 1 (Homo sapiens, UniProt Q96RJ0); assay: Fluorescence-based cell-based high throughput dose response assay to identify agonists of the human trace amine associated receptor 1 (TAAR1).; format: functional
T1 sequence (Q96RJ0 whole entry): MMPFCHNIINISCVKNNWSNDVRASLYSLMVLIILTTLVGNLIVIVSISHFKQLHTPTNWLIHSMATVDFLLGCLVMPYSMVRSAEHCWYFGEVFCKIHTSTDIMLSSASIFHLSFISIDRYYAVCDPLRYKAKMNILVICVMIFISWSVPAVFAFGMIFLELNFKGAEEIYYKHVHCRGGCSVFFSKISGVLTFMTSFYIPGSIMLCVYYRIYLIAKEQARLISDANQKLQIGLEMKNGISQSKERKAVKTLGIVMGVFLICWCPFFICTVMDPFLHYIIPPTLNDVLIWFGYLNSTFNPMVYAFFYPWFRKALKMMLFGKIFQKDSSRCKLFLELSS

[4] = target: T1, Trace amine-associated receptor 1; assay: Counterscreen for agonists of the human trace amine associated receptor 1 (hTAAR1): Fluorescence-based cell-based high throughput dose response assay to identify hTAAR1 agonist that also desensitize TAAR1 receptor response.; format: functional
cells [5] = format: functional, cell-based; remark: listed apart in the source
Fatty acid synthase [6] = target: T2, Fatty acid synthase (Homo sapiens, UniProt P49327); assay: FAS thioesterase domain inhibitors, dose response, biochemical, endpoint fluorescence intensity, uHTS hits (AID 624327); format: functional;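 also: fluorescence from hydrolysis of an O-methyl fluorescein acyl ester substrate by the enzyme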
Fatty acid synthase [7] = target: T2, Fatty acid synthase; assay: FAS thioesterase domain inhibitors, dose response, biochemical, kinetic fluorescence intensity (AID 624326); format: functional;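 also: rate of fluorescence rise from hydrolysis of a fluorogenic O-methyl fluorescein ester substrate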
[8] = target: T3, Long-chain-fatty-acid--AMP ligase FadD28 (Mycobacterium tuberculosis, UniProt P9WQ59); assay: Fluorescence polarization aasay to screen for inhibitors that compete for the binding of FadD28 to a bisubstrate Measured in Biochemical System Using Plate Reader - 2147-01_Inhibitor_Dose_CherryPick_Activity.; format: functional, Mycobacterium tuberculosis H37Rv
T3 sequence (P9WQ59 whole entry): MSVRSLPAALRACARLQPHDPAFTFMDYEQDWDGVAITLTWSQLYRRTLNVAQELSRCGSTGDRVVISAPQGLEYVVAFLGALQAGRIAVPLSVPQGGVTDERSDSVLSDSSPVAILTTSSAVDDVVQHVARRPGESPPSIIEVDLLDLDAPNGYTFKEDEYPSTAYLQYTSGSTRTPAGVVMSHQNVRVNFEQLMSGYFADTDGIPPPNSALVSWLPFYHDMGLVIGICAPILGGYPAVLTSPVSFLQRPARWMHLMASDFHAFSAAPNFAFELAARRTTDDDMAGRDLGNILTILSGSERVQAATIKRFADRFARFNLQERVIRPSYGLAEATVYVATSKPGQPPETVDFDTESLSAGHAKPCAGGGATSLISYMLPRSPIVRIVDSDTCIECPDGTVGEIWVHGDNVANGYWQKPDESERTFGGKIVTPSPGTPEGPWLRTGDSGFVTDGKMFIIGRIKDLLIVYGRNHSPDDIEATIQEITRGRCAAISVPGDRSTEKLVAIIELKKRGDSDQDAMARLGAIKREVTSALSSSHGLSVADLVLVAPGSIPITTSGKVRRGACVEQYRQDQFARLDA

[9] = target: T4, Adenosylmethionine-8-amino-7-oxononanoate aminotransferase (Mycobacterium tuberculosis, UniProt P9WQ81); assay: Mycobacterium tuberculosis BioA enzyme inhibitor Measured in Biochemical System Using Plate Reader - 2163-02_Inhibitor_Dose_CherryPick_Activity.; format: functional, Mycobacterium tuberculosis UT205
T4 sequence (P9WQ81 whole entry): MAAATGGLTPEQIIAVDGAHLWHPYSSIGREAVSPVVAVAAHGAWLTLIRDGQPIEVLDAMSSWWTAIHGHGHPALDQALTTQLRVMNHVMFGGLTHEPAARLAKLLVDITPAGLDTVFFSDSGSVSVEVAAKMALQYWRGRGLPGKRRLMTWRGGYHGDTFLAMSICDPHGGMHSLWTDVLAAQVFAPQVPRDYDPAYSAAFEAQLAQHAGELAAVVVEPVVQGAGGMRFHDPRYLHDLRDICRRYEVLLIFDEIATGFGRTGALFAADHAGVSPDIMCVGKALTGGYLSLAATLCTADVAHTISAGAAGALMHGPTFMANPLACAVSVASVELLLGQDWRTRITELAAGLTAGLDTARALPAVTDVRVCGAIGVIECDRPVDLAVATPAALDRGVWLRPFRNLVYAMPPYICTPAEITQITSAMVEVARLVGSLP

[10] = target: T5, High affinity choline transporter 1 (Homo sapiens, UniProt Q9GZV3); assay: CHT inhibitors, dose response, cell-based, 5-point CRC, membrane potential dye (AID 504840); format: functional
T5 sequence (Q9GZV3 whole entry): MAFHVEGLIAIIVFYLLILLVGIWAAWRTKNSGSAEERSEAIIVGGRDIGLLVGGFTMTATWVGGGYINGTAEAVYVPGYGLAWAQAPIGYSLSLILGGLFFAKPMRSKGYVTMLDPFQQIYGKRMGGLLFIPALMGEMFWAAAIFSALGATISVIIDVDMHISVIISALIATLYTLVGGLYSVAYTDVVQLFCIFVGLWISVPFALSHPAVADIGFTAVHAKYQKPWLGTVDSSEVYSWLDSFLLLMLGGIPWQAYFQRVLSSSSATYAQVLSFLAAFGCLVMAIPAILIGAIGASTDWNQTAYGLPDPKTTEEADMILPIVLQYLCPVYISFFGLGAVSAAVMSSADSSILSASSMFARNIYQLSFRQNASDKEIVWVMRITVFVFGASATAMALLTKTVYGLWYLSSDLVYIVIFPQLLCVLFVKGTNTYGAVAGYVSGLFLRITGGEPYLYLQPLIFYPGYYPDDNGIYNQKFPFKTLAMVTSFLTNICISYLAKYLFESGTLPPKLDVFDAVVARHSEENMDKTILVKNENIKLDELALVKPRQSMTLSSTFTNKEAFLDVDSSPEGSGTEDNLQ

Genome polyprotein = Genome polyprotein (dengue virus type 2, UniProt P29990); assay: Dengue-2 NS5 methyltransferase inhibitors, primary screen, biochemical, confirmation dose response (AID 588689); format: functional
[11] = miR-122 activators in hepatoma reporter cells, dose response, cell-based, Huh7 psiCHECK-miR122, Renilla luciferase, cherry-picked (AID 651956); format: functional;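 also: huh7 hepatoma cells stably carrying a psiCHECK-2 miR-122 sensor plasmid; renilla luciferase signal reporting endogenous miR-122 activity after 48 h compound exposure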
[12] = target: T6, DNA repair and recombination protein RAD54-like (Homo sapiens, UniProt Q92698); assay: inhibitors of human RAD54 branch migration, confirmation, biochemical, fluorescence, cherry-picked samples, dose series (AID 651657); format: functional
T6 sequence (Q92698 whole entry): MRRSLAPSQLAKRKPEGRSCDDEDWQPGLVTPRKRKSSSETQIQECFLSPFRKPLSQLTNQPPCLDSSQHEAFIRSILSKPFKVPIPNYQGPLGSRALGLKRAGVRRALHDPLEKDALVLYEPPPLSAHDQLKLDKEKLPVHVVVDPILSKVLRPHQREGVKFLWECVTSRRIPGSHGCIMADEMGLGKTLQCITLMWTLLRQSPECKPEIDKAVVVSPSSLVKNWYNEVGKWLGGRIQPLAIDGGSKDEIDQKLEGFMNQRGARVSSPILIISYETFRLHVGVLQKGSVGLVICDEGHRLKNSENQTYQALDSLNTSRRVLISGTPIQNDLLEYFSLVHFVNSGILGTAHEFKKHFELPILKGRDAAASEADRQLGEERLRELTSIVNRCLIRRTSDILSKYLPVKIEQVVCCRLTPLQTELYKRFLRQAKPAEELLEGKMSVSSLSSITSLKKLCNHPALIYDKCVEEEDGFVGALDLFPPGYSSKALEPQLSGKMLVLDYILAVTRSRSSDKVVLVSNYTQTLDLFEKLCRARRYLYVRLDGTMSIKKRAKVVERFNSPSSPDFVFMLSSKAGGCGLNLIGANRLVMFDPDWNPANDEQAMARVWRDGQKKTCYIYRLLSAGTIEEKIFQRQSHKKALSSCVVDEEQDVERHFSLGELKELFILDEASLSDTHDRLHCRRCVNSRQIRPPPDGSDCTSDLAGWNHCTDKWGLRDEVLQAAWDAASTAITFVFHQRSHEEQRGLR

[13] = test system: Streptococcus sp. 'group A'; assay: growth inhibition of control SK(-) GAS strain, dose response, counter-screen for streptokinase expression inhibitor project, luminescence, kanamycin, BacTiterGlo, confirmation (AID 1900); format: functional, organism-based
Streptococcus = assay: Group A Streptococcus viability loss, dose response, counter-screen for streptokinase expression inhibitor project, luminescence, BacTiterGlo (AID 1915); format: functional, organism-based;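 also: potency for reduction of bacterial viability or growth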

T2 sequence (P49327 whole entry, the tested form may be a part): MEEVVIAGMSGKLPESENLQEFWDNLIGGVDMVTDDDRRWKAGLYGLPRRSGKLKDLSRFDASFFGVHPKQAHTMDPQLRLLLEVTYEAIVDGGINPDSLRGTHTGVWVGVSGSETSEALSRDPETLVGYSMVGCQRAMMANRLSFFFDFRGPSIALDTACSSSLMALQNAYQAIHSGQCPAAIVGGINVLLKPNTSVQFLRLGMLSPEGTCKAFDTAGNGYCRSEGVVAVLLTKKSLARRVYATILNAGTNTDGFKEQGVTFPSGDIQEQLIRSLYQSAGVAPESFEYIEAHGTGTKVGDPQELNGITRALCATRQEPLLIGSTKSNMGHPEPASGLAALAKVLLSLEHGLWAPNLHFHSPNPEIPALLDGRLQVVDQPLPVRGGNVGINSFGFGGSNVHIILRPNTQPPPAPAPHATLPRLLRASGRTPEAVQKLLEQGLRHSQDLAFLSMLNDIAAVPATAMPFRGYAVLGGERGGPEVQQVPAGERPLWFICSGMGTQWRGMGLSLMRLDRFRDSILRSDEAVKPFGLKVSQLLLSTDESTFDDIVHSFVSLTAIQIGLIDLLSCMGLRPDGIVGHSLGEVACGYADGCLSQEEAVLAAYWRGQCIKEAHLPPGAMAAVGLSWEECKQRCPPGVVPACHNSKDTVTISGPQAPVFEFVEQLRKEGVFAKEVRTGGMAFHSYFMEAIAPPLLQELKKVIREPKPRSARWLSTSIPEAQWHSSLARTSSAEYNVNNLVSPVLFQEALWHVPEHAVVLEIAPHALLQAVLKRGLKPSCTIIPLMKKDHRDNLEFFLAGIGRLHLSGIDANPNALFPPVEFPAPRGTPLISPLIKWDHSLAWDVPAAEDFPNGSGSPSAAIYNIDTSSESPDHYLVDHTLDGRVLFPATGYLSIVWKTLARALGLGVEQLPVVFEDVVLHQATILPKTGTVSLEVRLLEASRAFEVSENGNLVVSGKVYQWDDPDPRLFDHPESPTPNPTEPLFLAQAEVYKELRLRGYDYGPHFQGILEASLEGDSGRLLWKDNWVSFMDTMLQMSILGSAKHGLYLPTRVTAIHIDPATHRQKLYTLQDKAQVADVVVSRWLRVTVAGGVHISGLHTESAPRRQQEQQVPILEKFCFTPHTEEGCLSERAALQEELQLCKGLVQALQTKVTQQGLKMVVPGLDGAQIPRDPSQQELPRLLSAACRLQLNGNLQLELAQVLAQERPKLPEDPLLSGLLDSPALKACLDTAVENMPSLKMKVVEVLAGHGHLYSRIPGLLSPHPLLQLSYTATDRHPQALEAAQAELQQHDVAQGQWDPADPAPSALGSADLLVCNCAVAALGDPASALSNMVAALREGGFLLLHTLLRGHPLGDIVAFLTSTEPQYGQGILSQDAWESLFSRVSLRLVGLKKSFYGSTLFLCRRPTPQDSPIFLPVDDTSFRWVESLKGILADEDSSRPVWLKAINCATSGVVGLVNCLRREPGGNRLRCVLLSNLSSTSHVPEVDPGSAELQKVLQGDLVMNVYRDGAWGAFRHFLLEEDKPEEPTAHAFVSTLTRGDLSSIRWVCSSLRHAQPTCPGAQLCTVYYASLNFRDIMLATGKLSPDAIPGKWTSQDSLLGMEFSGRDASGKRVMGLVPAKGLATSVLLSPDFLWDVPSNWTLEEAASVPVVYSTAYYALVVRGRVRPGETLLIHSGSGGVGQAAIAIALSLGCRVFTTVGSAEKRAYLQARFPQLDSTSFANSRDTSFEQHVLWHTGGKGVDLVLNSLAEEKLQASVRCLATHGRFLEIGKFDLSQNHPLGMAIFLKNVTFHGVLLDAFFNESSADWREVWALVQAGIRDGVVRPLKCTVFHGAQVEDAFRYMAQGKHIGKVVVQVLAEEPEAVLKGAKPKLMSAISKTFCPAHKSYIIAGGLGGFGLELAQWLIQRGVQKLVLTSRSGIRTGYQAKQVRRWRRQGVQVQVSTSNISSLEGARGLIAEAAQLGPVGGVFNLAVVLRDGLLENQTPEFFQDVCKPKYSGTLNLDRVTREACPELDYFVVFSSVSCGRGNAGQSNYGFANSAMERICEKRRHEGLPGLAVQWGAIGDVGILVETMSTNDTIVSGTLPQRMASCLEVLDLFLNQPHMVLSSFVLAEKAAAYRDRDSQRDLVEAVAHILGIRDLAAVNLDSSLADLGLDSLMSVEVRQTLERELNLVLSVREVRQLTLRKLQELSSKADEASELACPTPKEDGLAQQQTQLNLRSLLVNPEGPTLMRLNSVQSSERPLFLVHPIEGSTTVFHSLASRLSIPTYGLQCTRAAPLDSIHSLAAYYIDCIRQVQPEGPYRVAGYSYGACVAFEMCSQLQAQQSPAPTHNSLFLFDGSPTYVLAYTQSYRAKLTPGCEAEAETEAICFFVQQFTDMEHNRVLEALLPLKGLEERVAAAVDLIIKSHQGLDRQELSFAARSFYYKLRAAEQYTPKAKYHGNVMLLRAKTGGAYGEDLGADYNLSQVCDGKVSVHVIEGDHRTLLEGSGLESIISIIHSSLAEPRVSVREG
Genome polyprotein, sequence (P29990 2492-3391 limits assumed): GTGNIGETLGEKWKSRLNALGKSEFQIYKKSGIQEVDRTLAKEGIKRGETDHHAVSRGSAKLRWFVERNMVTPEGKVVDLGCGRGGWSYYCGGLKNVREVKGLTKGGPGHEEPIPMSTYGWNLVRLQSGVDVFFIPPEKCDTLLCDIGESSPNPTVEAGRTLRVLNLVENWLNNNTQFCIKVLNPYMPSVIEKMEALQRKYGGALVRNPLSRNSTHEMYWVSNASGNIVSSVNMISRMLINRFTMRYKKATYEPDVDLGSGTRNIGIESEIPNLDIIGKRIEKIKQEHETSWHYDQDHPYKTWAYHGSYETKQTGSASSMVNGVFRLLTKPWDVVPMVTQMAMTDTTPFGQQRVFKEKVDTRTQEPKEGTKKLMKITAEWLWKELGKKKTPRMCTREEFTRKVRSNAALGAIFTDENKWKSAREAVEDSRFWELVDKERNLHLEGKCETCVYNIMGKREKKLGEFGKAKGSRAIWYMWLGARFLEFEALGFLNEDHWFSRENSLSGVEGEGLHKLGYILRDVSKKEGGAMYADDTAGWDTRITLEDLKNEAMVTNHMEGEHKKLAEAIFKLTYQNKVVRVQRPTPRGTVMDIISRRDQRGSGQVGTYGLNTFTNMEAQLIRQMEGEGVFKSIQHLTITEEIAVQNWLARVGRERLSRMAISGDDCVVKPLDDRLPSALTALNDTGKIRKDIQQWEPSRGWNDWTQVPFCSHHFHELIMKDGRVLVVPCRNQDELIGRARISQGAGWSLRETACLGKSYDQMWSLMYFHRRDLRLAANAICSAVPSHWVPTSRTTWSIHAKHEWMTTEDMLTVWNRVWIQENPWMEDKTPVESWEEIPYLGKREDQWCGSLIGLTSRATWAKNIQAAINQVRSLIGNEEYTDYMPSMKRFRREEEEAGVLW

## CCOC(=O)c1ccc(NC(=O)CC2C(=O)OCCN2CC)cc1 (configuration not stated)
[1]
  AC50: 4.65 µM (active)

## Nc1sc2c(c1C(=O)NCCc1ccccc1)CCC2
Cells [2]
  IC50: > 29.9 µM (inactive)
[3]
  EC50: 3.36 µM (active)
[4]
  IC50: 9.93 µM (active)
Cells [5]
  EC50: > 29.9 µM (inactive)

## O=C(Nc1ccc(Cc2ccncc2)cc1)c1cc([N+](=O)[O-])ccc1N1CCOCC1
Fatty acid synthase [6]
  IC50: 1.53 µM (active)
Fatty acid synthase [7]
  IC50: 1.24 µM (active)

## COc1ccc(C(=O)NCc2ccc(Cl)cc2)cc1S(=O)(=O)N1CCCC1
[8]
  AC50: 4.67 µM (active)

## CC(=O)c1ccc(N2CCN(S(=O)(=O)c3c(C(=O)N4CCCC4)c(C)n(C)c3C)CC2)cc1
[9]
  AC50: 11.6 µM (active)

## O=[N+]([O-])c1ccc(S(=O)(=O)Nc2nc(-c3ccccc3)cs2)cc1
[10]
  IC50: 4.57 µM (active)
Genome polyprotein
  IC50: 59.6 µM (active)

## Cc1nnc(NC(=O)CSc2nc(C(C)C)nc3sc(C)c(C)c23)s1
[11]
  AC50: 34.8 µM (active)

## Clc1cccc2c3c([nH]c12)CCNC3
Cells [2]
  IC50: > 29.9 µM (inactive)
[3]
  EC50: 1.36 µM (active)
[4]
  IC50: 22.1 µM (inactive)
Cells [5]
  EC50: > 29.9 µM (inactive)

## Cc1oc(-c2ccccc2Cl)nc1CS(=O)(=O)CC(=O)NCCc1ccccc1
Cells [2]
  IC50: 18.3 µM (inactive)
[3]
  EC50: 2.9 µM (active)
[4]
  IC50: 8.19 µM (active)
Cells [5]
  EC50: > 29.9 µM (inactive)

## COc1ccc2nc(C)cc(Nc3ccc(C)cc3)c2c1
[12]
  AC50: 19.4 µM (active)

## CC(C)(C)N(Cc1ccccc1)C(=O)COC(=O)c1ccc([N+](=O)[O-])o1
Fatty acid synthase [6]
  IC50: 16.2 µM (active)
Fatty acid synthase [7]
  IC50: 12.2 µM (active)

## Cc1cc(/C=C2\SC(=S)NC2=O)c(C)n1-c1ccc(O)cc1
[13]
  EC50: 1.69 µM (active)
Streptococcus
  EC50: 2.36 µM (active)
[1]
  AC50: 15.5 µM (active)

## CCOc1cc2[nH]c(=S)n(Cc3ccc(C(=O)NCCCN(CC)CC)cc3)c(=O)c2cc1OCC
[12]
  AC50: 40.1 µM (active)

Source: ChEMBL document CHEMBL1201862, “PubChem BioAssay data set” (2004)
